Measurements as given in US6479435B1, “Diaryl ethers and processes for their preparation and herbicidal and desiccant compositions containing them” (ISK Americas Incorporated, priority 1997, dated 2002).

Experiments:
Grass Weeds = experiment: Pre-emergent application in combination with other herbicides, percent control of grass weeds; type: in vivo; conditions: 1121 g ai/ha
Procedure: (§1) All plants were grown in 10 cm square plastic pots which were filled with a sandy loam soil mix. For preemerge tests, seeds were planted one day prior to application of the test compounds. Immediately after application, test units of the pre-emerge applications were watered at the soil surface to incorporate the test materials. Subsequently, these test units were bottom-watered.
(§2) All test compounds were dissolved in acetone and applied to the test units in a volume of 187 l/ha. […] Plants were arranged on a shelf so that the top of the canopy (post-emerge) or top of the soil surface (pre-emerge) was 40-45 cm below the nozzle. Pressurized air was used to force the test solution through the nozzle as it was mechanically advanced (via electrically driven chain drive) over the top of all test plants/pots. This application simulates a typical commercial field herbicide application.
(§3) At 14 days after application of the test materials, phytotoxicity ratings were recorded. A rating scale of 0-100 was used as previously described in Research Methods in Weed Science, 2nd edition, B. Truelove, Ed., Southern Weed Science Society, Auburn University, Auburn, Ala., 1977. Briefly, “0” corresponds to no damage and “100” corresponds to complete death of all plants in the test unit. This scale was used both to determine efficacy against weed species and damage to crop species. Herbicide activity data for various compounds of this invention, which are shown by compound number in Tables 1-9, are shown in Tables 13 and 14.
(§4) (Note: Weed species abbreviations are from the Composite List of Weeds published by the Weed Science Society of America, 1989.)
(§5) The following examples illustrate the utility of combinations of compounds of this invention and existing herbicides. The methods used are identical to those for the application of single compounds except the commercial formulations of existing herbicides were added to the spray mixture in the appropriate amounts before spraying.
Combination Example 1. Pre-emergent Application of Compound 9-1 with Metolachlor
(§6) Combination Example 2. Pre-emergent Application of Compound 9-1 with Dimethenamid

Broadleaf Weeds = experiment: Pre-emergent application in combination with other herbicides, percent control of broadleaf weeds; type: in vivo
Procedure: as §1, §2, §3, §4
as §5, with “spraying. […]” for “spraying.”
as §6

Row | Compound | Percent Control of Grass Weeds DIGSA (Grass Weeds; Combination Example 2) | Percent Control of Grass Weeds ECHCG (Grass Weeds; Combination Example 2) | Percent Control of Grass Weeds SETVI (Grass Weeds; Combination Example 2) | Percent Control of Grass Weeds SORHA (Grass Weeds; Combination Example 2) | Percent Control of Broadleaf Weeds ABUTH (Broadleaf Weeds; 520 g ai/ha) | Percent Control of Broadleaf Weeds AMARE (Broadleaf Weeds; 520 g ai/ha) | Percent Control of Broadleaf Weeds AMBEL (Broadleaf Weeds; 520 g ai/ha) | Percent Control of Broadleaf Weeds CASOB (Broadleaf Weeds; 520 g ai/ha) | Percent Control of Broadleaf Weeds CHEAL (Broadleaf Weeds; 520 g ai/ha) | Percent Control of Broadleaf Weeds IPOHE (Broadleaf Weeds; 520 g ai/ha) | Percent Control of Grass Weeds DIGSA (Grass Weeds) | Percent Control of Grass Weeds ECHCG (Grass Weeds) | Percent Control of Grass Weeds SETVI (Grass Weeds) | Percent Control of Grass Weeds SORHA (Grass Weeds) | Percent Control of Broadleaf Weeds ABUTH (Broadleaf Weeds; 1121 g ai/ha) | Percent Control of Broadleaf Weeds AMARE (Broadleaf Weeds; 1121 g ai/ha) | Percent Control of Broadleaf Weeds AMBEL (Broadleaf Weeds; 1121 g ai/ha) | Percent Control of Broadleaf Weeds CASOB (Broadleaf Weeds; 1121 g ai/ha) | Percent Control of Broadleaf Weeds CHEAL (Broadleaf Weeds; 1121 g ai/ha) | Percent Control of Broadleaf Weeds IPOHE (Broadleaf Weeds; 1121 g ai/ha)
1 | COCC(C)N(C(=O)CCl)c1c(C)csc1C (centres unmarked) [Dimethenamid, reference compound] | 100% | 100% | 100% | 100% | 40% | 100% | 40% | 40% | 30% | 0% |  |  |  |  |  |  |  |  |  | 
2 | CCc1cccc(C)c1N(C(=O)CCl)C(C)COC (centres unmarked) [Metolachlor, reference compound] |  |  |  |  |  |  |  |  |  |  | 100% | 100% | 100% | 100% | 20% | 100% | 30% | 10% | 90% | 20%
